Values quoted from earlier work, collected in US12396967B2 (Pulmonem Inc., priority 2020, dated 2025).

Test system: human bronchial epithelial cells stimulated with lipopolysaccharide

For Nc1ccc(S(=O)(=O)c2ccc(N)cc2)cc1 [Dapsone, 4,4′-diamino-diphenyl sulfone], the IL-8 secretion is given as “inhibits IL-8 secretion”.
